# Assay results published in patent US11090292B2, “Compositions and methods of use of an inappetance-controlling compound” (Aratana Therapeutics, Inc., priority 2012, dated 2021).
# Key:
# Assay type in all cases: in vivo, Beagle dogs
# [1] = system: growth hormone (GH); assay: Example 1: serum GH concentration; details: once-daily 6 mg/kg or twice-daily 3 mg/kg, approximately 0.5 h after dosing, days 1, 2, 4, 7
# Protocol: A controlled, seven-day study was performed to assess the impact of different capromorelin-dosing regimens on the production of insulin-like growth factor 1 (hereinafter “IGF-1”), growth hormone (hereinafter “GH”), and cortisol. The different capromorelin-dosing regimens were also assessed for the impact on food intake and changes in body mass.
# Eighteen adult non-naïve Beagle dogs (nine males and nine females) were divided into one of three treatment groups. Each of the three treatment groups included three males and three females. Group A, which was the control group, was dosed twice per day, via oral gavage, with a vehicle (deionized water alone) and was used as a baseline data point for comparison against the active treatment regimens. Group B comprised an active treatment group that received two treatments per day, via oral gavage, with a capromorelin-containing composition with a concentration of 3 mg/kg capromorelin per treatment. Finally, Group C comprised an active treatment group that received one treatment per day, via oral gavage, with a capromorelin-containing composition with a concentration of 6 mg/kg capromorelin per treatment.
# During the ten day study period, on an at least once-daily basis, each of the dogs was monitored for clinical observations, mortality, morbidity, body mass, and food consumption. […]
# [2] = Example 5 seven-day study with flavored Formulation 9: food consumption and body weight; details: for more food consumed, Day 7 compared with Day −1: oral syringe, Formulation 9
# Protocol: In order to further refine the dosing regimen that would provide an appropriate blood profile of capromorelin and desired results from the perspective of increased food intake and weight gain, an additional series of experiments were conducted. In these experiments, twenty-four adult (male and female) Beagle dogs weighing approximately 9 to 13 kilograms were randomly divided into four groups. Group 1 received a placebo formulation, without any active compound, two times per day; Group 2 received a composition comprising 3 mg/kg of body weight of capromorelin one time per day; Group 3 received a composition comprising 4.5 mg/kg of body weight of capromorelin one time per day; and Group 4 received a composition comprising 3 mg/kg of body weight of capromorelin two times per day.
# In particular, on the first day of dosing, Day 1, through the last day of dosing, Day 7, the compositions were orally administered (i.e., using a syringe) to the animals in a flavored formulation of the following composition: […]
# In these experiments, the animals were orally administered the flavored formulation at approximately 8:00 AM and, for Group 4 only, again at 6:00 PM. The animals were fed at 10:00 AM beginning seven days prior to Day 1 and continuing for the duration of the study. The animals were offered twice the normal amount of food. Approximately two hours after the food offering, the remainder was removed and weighed to assess food intake. This restricted feeding regime was started at Day −7 to allow the animals to transition to a normal feed intake before the study was initiated. Food consumption was calculated and recorded on Days −7 through Day 7. Baseline food consumption was calculated for each individual dog as the average number of grams of food consumed on Days −3, −2, and −1. The study period food consumption was calculated for each individual dog as the average of Days 1 through 7. Body weights were collected on Days −1, 3, and 7. Blood was collected for measurements of capromorelin, growth hormone, cortisol, and IGF-1 concentrations on Days 1, 4, and 7 at about 15 minutes pre-administration, immediately prior to dosing (0 minutes), 30, 45, 60, 90, 120, 240, 360, and/or 480 minutes post dosing via the jugular or other accessible vessel. As reflected by the data in FIGS. 61-74, the animals' response to the capromorelin-containing composition is largely in accord with the results discussed above.
# [3] = system: cortisol; assay: Example 4: serum cortisol concentration; details: approximately 0.5 h post treatment, days 1, 4 and 7
# Protocol: A controlled, seven-day study was performed to assess the impact of different capromorelin-dosing regimens on the production of IGF-1, GH, and cortisol. The different capromorelin-dosing regimens were also assessed for the impact on food intake and changes in body mass.
# […] were divided into one of three treatment groups, with one negative control group and two active treatment groups. Each of the three treatment groups included three males and three females. The first group received a placebo formulation (i.e., deionized water) twice per day, via oral gavage. The second group received a once-daily dose of the capromorelin composition at a concentration of 3 mg/kg, via oral gavage. The third group received a twice-daily dose of the capromorelin composition at a concentration of 3 mg/kg, via oral gavage.
# During the ten day study period, on an at least once-daily basis, each of the dogs was monitored for clinical observations, mortality, moribundity, body mass, acceptability/palatability, and food consumption. Serum samples were taken to measure capromorelin concentration, GH concentration, IGF-1 concentration, and cortisol concentration. Serum samples were taken on days 1, 2, 4, and 7 at −15 minutes (pre-dose), immediately prior to dosing (0 minutes) and 30, 45, 60, 90, 120, 240, 360, and/or 480 minutes post dosing. […]
smiles,measurement,setting,value
CN1N=C2CCN(C(=O)[C@@H](COCc3ccccc3)NC(=O)C(C)(C)N)C[C@@]2(Cc2ccccc2)C1=O.O=C(O)C(O)C(O)C(=O)O [capromorelin],GH levels in the serum after dosing,[1],marked increase
same,"Comparison of Weight on Day −1 to Weight on Day 7 (X ± SD, %)","[2]; Group 2, 3 mg/kg 1x per day",4.52 ± 1.67%
same,"more food consumed, Day 7 compared with Day −1","[2]; Group 2, 3 mg/kg one time per day",42.7%
same,"Comparison of Weight on Day −1 to Weight on Day 7 (X ± SD, %)","[2]; Group 3, 4.5 mg/kg 1x per day",3.78 ± 2.93%
same,"more food consumed, Day 7 compared with Day −1","[2]; Group 3, 4.5 mg/kg one time per day",34.5%
same,"Comparison of Weight on Day −1 to Weight on Day 7 (X ± SD, %)","[2]; Group 4, 3 mg/kg 2x per day",4.17 ± 1.35%
same,"more food consumed, Day 7 compared with Day −1","[2]; Group 4, 3 mg/kg two times per day",31.5%
same,cortisol concentrations in the serum relative to deionized water,[3],increased
